Legend:
Mu-type opioid receptor = Mu-type opioid receptor (Rattus norvegicus, UniProt P33535); assay: Antagonist activity at mu-opioid receptor in rat thalamus membrane assessed as inhibition of DAMGO-stimulated [35S]GTPgammaS binding incubated for 2 hrs by liquid scintillation spectrophotometry; type: functional, cell membranes
P-gp (ABCB1) = P-gp (ABCB1) (Homo sapiens, UniProt P08183); assay: Substrate activity at P-gp in human Caco-2 cells assessed as efflux ratio measured for 2 hrs by HPLC analysis; type: ADME, cell-based
Sequence of P-gp (ABCB1) (P08183 whole entry): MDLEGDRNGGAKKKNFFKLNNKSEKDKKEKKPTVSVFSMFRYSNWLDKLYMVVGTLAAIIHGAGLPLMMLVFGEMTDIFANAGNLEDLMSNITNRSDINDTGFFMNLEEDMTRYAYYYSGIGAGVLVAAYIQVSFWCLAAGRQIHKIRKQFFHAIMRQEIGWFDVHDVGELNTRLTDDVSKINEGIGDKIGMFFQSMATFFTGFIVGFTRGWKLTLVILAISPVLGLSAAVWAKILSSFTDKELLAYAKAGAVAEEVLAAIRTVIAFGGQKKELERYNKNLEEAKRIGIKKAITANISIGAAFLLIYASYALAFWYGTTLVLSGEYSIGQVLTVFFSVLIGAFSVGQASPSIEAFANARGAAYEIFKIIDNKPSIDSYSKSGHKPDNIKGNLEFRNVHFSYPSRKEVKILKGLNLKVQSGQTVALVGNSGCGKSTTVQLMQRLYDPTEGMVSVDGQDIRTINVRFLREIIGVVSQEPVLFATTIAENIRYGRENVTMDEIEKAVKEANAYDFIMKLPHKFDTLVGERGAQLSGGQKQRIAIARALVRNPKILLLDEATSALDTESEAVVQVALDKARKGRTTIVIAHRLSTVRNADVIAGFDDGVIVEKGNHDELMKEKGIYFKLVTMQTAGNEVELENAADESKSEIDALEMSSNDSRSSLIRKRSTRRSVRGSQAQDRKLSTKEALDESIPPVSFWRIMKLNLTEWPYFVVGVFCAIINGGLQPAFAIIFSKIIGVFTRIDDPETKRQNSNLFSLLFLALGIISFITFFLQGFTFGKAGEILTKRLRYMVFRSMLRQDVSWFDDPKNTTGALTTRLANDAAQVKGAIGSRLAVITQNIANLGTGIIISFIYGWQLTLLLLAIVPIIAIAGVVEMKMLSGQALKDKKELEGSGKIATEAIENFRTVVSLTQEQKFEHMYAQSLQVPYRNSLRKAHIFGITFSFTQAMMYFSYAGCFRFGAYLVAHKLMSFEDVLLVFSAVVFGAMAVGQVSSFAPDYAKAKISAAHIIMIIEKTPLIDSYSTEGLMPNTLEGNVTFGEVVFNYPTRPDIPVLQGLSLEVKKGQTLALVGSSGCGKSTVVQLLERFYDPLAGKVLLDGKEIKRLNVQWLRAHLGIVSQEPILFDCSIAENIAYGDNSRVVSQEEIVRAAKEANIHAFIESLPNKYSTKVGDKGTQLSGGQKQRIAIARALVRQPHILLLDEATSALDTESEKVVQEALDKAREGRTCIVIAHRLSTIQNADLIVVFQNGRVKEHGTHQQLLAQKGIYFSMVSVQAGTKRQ

[1] = Apparent permeability of the compound across apical to basolateral side in human Caco-2 cells measured for 2 hrs by HPLC analysis; type: ADME, cell-based

Sequence of Mu-type opioid receptor (P33535 whole entry): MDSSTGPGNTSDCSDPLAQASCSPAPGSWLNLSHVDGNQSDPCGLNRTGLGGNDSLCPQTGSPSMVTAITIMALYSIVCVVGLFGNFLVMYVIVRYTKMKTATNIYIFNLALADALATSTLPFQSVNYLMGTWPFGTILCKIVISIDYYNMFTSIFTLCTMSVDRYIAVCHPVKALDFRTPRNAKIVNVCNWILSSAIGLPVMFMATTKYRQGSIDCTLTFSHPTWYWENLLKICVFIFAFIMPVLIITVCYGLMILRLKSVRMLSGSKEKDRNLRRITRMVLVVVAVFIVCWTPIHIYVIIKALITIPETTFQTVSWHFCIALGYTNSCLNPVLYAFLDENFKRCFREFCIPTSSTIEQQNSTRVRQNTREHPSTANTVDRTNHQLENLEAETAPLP

| SMILES | Ki (Mu-type opioid receptor) [nM] | efflux ratio at 2 h (P-gp (ABCB1)) | Papp A→B at 2 h [1] [×10⁻⁶ cm/s] |
| --- | --- | --- | --- |
| O=C(N[C@@H]1CC[C@@]2(O)[C@H]3Cc4ccc(O)c5c4[C@@]2(CCN3CC2CC2)[C@H]1O5)c1cc2ccccc2cn1 | 3.5 | 1.3 | 3 |
| O=C(N[C@@H]1CC[C@@]2(O)[C@H]3Cc4ccc(O)c5c4[C@@]2(CCN3CC2CC2)[C@H]1O5)c1ccncc1 | 4.8 | > 10 | < 0.7 |
